In patent US11993599B2, “Therapeutic compounds” (Genentech, Inc., priority 2021, dated 2024):

What was measured:
BRM = BRM (Homo sapiens, UniProt P51531); experiment: Immunofluorescence assay for BRM degradation in SW1573 cells; format: cell-based; set-up: treated overnight at 4° C. with either BRM primary antibody (Cell signaling Cat #11966) or BRG primary antibody; endogenous in cells; host or cells: SW1573; settings: 20 hours incubation; for DC50: immunofluorescence mean nuclear signal, read-out: BRM IF Degradation IC50; for BRM IF Degradation Sinf (%): normalized to a known degrader control
Chain of BRM (P51531 whole entry): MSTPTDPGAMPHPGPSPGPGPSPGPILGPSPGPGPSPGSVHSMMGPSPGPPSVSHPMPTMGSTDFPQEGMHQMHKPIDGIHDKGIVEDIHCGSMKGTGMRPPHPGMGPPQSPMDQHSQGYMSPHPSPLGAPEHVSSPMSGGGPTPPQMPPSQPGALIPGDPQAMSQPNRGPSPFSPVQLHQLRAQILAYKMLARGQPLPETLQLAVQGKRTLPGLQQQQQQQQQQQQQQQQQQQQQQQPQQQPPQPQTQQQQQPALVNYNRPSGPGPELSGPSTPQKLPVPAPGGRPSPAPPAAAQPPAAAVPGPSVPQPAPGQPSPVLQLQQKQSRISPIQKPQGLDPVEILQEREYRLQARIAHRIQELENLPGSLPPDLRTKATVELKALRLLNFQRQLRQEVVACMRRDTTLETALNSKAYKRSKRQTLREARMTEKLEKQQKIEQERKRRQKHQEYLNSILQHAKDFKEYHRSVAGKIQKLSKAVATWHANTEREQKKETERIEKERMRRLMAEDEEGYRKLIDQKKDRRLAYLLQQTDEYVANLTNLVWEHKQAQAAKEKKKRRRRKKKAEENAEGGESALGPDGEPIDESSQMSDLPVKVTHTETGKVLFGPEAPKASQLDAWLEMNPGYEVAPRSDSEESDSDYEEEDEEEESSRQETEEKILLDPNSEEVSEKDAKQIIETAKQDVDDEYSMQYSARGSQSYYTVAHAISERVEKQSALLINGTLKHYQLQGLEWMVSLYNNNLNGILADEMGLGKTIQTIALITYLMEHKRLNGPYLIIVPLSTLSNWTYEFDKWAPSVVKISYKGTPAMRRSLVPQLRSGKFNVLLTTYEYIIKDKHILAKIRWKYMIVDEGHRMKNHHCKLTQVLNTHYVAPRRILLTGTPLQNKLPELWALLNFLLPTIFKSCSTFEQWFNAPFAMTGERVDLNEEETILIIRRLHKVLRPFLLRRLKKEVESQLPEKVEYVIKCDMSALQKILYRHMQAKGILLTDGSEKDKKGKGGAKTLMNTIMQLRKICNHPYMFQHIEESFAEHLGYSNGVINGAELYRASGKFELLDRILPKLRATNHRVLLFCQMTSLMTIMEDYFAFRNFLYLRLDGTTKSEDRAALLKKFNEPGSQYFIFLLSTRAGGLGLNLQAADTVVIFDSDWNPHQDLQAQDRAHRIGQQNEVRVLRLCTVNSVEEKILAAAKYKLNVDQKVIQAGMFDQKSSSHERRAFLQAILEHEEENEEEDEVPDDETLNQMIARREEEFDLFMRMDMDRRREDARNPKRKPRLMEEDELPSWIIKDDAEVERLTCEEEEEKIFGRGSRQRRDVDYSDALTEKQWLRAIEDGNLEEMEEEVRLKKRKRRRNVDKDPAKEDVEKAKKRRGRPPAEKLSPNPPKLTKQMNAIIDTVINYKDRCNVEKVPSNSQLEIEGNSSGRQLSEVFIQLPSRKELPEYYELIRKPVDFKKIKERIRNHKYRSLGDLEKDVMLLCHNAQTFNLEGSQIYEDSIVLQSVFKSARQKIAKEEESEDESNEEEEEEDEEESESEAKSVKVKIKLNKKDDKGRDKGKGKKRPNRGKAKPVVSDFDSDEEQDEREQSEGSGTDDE
In short: (§1)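 Read-out is per-cell mean nuclear BRM or BRG1 immunofluorescence, imaged after 20 h compound exposure of SW1573 cells and normalized to a known degrader control. Concentration-response curves, fit with a floating maximum, yield degradation IC50 and Dmax.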

BRG1 = molecular target: T1, BRG1 (Homo sapiens, UniProt P51532); experiment: Immunofluorescence assay for BRG1 degradation in SW1573 cells; format: cell-based; settings: 20 hours incubation; for DC50: immunofluorescence mean nuclear signal, read-out: BRG1 IF Degradation IC50; for Dmax: SW1573, 20 h, normalized to a known degrader control, read-out: BRG1 IF Degradation Sinf (%)
T1 construct: either BRM primary antibody (Cell signaling Cat #11966) or BRG primary antibody (Abcam, ab 110641); endogenous in cells; host or cells: SW1573
T1 sequence (P51532 whole entry): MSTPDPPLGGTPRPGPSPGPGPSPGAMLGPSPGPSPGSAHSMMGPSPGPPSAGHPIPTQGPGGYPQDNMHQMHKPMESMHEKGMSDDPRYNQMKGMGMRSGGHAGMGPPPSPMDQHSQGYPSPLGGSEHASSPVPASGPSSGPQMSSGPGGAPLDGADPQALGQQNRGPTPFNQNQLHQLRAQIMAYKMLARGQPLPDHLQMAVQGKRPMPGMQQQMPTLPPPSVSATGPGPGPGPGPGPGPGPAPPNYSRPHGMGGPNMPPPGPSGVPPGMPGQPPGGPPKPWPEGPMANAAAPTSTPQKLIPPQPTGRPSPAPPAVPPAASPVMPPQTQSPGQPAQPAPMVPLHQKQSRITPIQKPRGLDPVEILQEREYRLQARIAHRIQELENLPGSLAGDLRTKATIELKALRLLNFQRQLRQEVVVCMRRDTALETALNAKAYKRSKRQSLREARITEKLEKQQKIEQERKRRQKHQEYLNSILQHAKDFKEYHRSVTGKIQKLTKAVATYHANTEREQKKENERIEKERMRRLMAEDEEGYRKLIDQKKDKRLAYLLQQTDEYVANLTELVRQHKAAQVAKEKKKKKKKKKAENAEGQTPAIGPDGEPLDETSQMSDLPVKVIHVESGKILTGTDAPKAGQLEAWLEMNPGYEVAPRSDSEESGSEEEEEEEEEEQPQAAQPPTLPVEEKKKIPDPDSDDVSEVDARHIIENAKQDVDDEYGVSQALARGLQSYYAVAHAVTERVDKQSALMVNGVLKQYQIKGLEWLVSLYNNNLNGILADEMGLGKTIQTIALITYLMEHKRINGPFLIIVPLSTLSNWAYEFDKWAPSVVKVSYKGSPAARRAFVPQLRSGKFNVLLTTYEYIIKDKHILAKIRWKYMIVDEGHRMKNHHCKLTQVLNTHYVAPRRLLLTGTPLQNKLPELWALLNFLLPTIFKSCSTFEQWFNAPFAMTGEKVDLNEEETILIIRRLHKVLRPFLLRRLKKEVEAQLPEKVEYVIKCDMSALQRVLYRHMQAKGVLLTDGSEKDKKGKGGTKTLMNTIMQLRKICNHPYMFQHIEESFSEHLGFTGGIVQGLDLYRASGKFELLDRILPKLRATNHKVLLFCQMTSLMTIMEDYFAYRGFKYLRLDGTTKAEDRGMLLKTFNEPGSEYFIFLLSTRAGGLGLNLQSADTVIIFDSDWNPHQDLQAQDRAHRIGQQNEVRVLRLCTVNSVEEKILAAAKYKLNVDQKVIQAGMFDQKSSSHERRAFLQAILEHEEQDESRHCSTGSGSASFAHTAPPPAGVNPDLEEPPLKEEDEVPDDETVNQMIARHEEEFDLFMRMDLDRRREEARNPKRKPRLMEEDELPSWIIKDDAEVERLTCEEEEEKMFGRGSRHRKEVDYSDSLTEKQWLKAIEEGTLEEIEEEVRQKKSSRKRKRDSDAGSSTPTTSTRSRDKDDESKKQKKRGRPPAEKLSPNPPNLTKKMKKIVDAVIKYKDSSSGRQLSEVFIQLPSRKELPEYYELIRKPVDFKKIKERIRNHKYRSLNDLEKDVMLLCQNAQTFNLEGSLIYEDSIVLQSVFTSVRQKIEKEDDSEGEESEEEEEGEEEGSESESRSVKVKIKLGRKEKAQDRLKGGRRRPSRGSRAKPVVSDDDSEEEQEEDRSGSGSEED
In short: as §1

SMILES	DC50 (BRM) [nM]	BRM IF Degradation Sinf (%) (BRM)	DC50 (BRG1) [nM]	Dmax (BRG1) [%]
Nc1nnc(-c2ccccc2O)cc1N1CC2CCC(C1)N2c1ccnc(C#CCN2CCn3cccc3C2)c1 [Compound 107, 2-[6-amino-5-[8-[2-[3-(3,4-dihydro-1H-pyrrolo[l,2-a]pyrazin-2-yl)prop-1-ynyl]-4-pyridyl]-3,8-diazabicyclo[3.2.1]octan-3-yl]pyridazin-3-yl]phenol]	10 to 100	E (E indicates −30%-−70%)	10 to 100	0 to 30
CN1C[C@@H]2CN(CC#Cc3cc(N4C5CCC4CN(c4cc(-c6ccccc6O)nnc4N)C5)ccn3)C[C@@H]2C1 [Compound 108, 2-[5-[8-[2-[3-[(3aS,6aR)-2-methyl-1,3,3a,4,6,6a-hexahydropyrrolo[3,4-c]pyrrol-5-yl]prop-1-ynyl]-4-pyridyl]-3,8-diazabicyclo[3.2.1]octan-3-yl]-6-amino-pyridazin-3-yl]phenol]	> 100	E (E indicates −30%-−70%)	> 100	–
Nc1nnc(-c2ccccc2O)cc1N1CC2CCC(C1)N2c1ccnc(C#CCN2C[C@@H]3C[C@@H](O)[C@H]2C3)c1 [Compound 109, (1R,4S,6R)-2-[3-[4-[3-[3-amino-6-(2-hydroxyphenyl)pyridazin-4-yl]-3,8-diazabicyclo[3.2.1]octan-8-yl]-2-pyridyl]prop-2-ynyl]-2-azabicyclo[2.2.1]heptan-6-ol]	< 10	E (E indicates −30%-−70%)	< 10	30 to 70
Nc1nnc(-c2ccccc2O)cc1N1CC2CCC(C1)N2c1ccnc(C#CCN2CCCOCC23CC3)c1 [Compound 110, 2-[6-amino-5-[8-[2-[3-(8-oxa-4-azaspiro[2.6]nonan-4-yl)prop-1-ynyl]-4-pyridyl]-3,8-diazabicyclo[3.2.1]octan-3-yl]pyridazin-3-yl]phenol]	< 10	E (E indicates −30%-−70%)	> 100	–
Nc1nnc(-c2ccccc2O)cc1N1CC2CCC(C1)N2c1ccnc(C#CCN2C3CCCC2COC3)c1 [Compound 111, 2-[6-amino-5-[8-[2-[3-(3-oxa-9-azabicyclo[3.3.1]nonan-9-yl)prop-1-ynyl]-4-pyridyl]-3,8-diazabicyclo[3.2.1]octan-3-yl]pyridazin-3-yl]phenol]	< 10	E (E indicates −30%-−70%)	< 10	0 to 30
Nc1nnc(-c2ccccc2O)cc1N1CC2CCC(C1)N2c1ccnc(C#CCN2CCOC(F)(F)C2)c1 [Compound 112, 2-[6-amino-5-[8-[2-[3-(2,2-difluoromorpholin-4-yl)prop-1-ynyl]-4-pyridyl]-3,8-diazabicyclo[3.2.1]octan-3-yl]pyridazin-3-yl]phenol]	< 10	E (E indicates −30%-−70%)	10 to 100	0 to 30
Nc1nnc(-c2ccccc2O)cc1N1CC2CCC(C1)N2c1ccnc(C#CCN2C[C@H]3CCO[C@H]3C2)c1 [Compound 113, 2-[5-[8-[2-[3-[(3aR,6aR)-2,3,3a,4,6,6a-hexahydrofuro[2,3-c]pyrrol-5-yl]prop-1-ynyl]-4-pyridyl]-3,8-diazabicyclo[3.2.1]octan-3-yl]-6-amino-pyridazin-3-yl]phenol]	10 to 100	E (E indicates −30%-−70%)	< 10	0 to 30
Nc1nnc(-c2ccccc2O)cc1N1CC2CCC(C1)N2c1ccnc(C#CCN2CCOC(CF)C2)c1 (stereo not drawn) [Compound 114, 2-[6-amino-5-[8-[2-[3-[2-(fluoromethyl)morpholin-4-yl]prop-1-ynyl]-4-pyridyl]-3,8-diazabicyclo[3.2.1]octan-3-yl]pyridazin-3-yl]phenol]	10 to 100	E (E indicates −30%-−70%)	> 100	–
Nc1nnc(-c2ccccc2O)cc1N1CC2CCC(C1)N2c1ccnc(C#CCN2C[C@H]3CC[C@@H]2C3)c1 [Compound 115, 2-[6-amino-5-[8-[2-[3-[(1R,4S)-2-azabicyclo[2.2.1]heptan-2-yl]prop-1-ynyl]-4-pyridyl]-3,8-diazabicyclo[3.2.1]octan-3-yl]pyridazin-3-yl]phenol]	< 10	E (E indicates −30%-−70%)	< 10	30 to 70
Nc1nnc(-c2ccccc2O)cc1N1CC2CCC(C1)N2c1ccnc(C#CCN2CC3CC2(CO)C3)c1 [Compound 116, 2-[6-amino-5-[8-[2-[3-[1-(hydroxymethyl)-2-azabicyclo[2.1.1]hexan-2-yl]prop-1-ynyl]-4-pyridyl]-3,8-diazabicyclo[3.2.1]octan-3-yl]pyridazin-3-yl]phenol]	10 to 100	E (E indicates −30%-−70%)	< 10	0 to 30
Nc1nnc(-c2ccccc2O)cc1N1CC2CCC(C1)N2c1ccnc(C#CCN2CC[C@@]3(O)C[C@H]3C2)c1 [Compound 117, (1S,6S)-3-[3-[4-[3-[3-amino-6-(2-hydroxyphenyl)pyridazin-4-yl]-3,8-diazabicyclo[3.2.1]octan-8-yl]-2-pyridyl]prop-2-ynyl]-3-azabicyclo[4.1.0]heptan-6-ol]	10 to 100	E (E indicates −30%-−70%)	10 to 100	0 to 30
Nc1nnc(-c2ccccc2O)cc1N1CC2CCC(C1)N2c1ccnc(C#CCN2C[C@@H]3[C@@H](CO)[C@@H]3C2)c1 [Compound 118, 2-[6-amino-5-[8-[2-[3-[(1S,5R)-6-(hydroxymethyl)-3-azabicyclo[3.1.0]hexan-3-yl]prop-1-ynyl]-4-pyridyl]-3,8-diazabicyclo[3.2.1]octan-3-yl]pyridazin-3-yl]phenol]	10 to 100	E (E indicates −30%-−70%)	< 10	30 to 70
CC1(C)CN(CC#Cc2cc(N3C4CCC3CN(c3cc(-c5ccccc5O)nnc3N)C4)ccn2)CCO1 [Compound 119, 2-[6-amino-5-[8-[2-[3-(2,2-dimethylmorpholin-4-yl)prop-1-ynyl]-4-pyridyl]-3,8-diazabicyclo[3.2.1]octan-3-yl]pyridazin-3-yl]phenol]	> 100	E (E indicates −30%-−70%)	> 100	–
N#CC1CCCN(CC#Cc2cc(N3C4CCC3CN(c3cc(-c5ccccc5O)nnc3N)C4)ccn2)C1 (stereo not drawn) [Compound 120, 1-[3-[4-[3-[3-amino-6-(2-hydroxyphenyl)pyridazin-4-yl]-3,8-diazabicyclo[3.2.1]octan-8-yl]-2-pyridyl]prop-2-ynyl]piperidine-3-carbonitrile]	10 to 100	E (E indicates −30%-−70%)	10 to 100	30 to 70
Nc1nnc(-c2ccccc2O)cc1N1CC2CCC(C1)N2c1ccnc(C#CCN2C3CCC2(CO)CC3)c1 [Compound 121, 2-[6-amino-5-[8-[2-[3-[1-(hydroxymethyl)-7-azabicyclo[2.2.1]heptan-7-yl]prop-1-ynyl]-4-pyridyl]-3,8-diazabicyclo[3.2.1]octan-3-yl]pyridazin-3-yl]phenol]	< 10	E (E indicates −30%-−70%)	> 100	30 to 70
CNC(=O)[C@H]1CCN(CC#Cc2cc(N3C4CCC3CN(c3cc(-c5ccccc5O)nnc3N)C4)ccn2)C1 [Compound 122, (3S)-1-[3-[4-[3-[3-amino-6-(2-hydroxyphenyl)pyridazin-4-yl]-3,8-diazabicyclo[3.2.1]octan-8-yl]-2-pyridyl]prop-2-ynyl]-N-methyl-pyrrolidine-3-carboxamide]	10 to 100	F (F indicates −71%-−120%)	10 to 100	30 to 70
Nc1nnc(-c2ccccc2O)cc1N1CC2CCC(C1)N2c1ccnc(C#CCN2C[C@@H]3C[C@H]2[C@H]2C[C@@H]32)c1 [Compound 123, 2-[6-amino-5-[8-[2-[3-[(1R,2S,4S,5S)-6-azatricyclo[3.2.1.02,4]octan-6-yl]prop-1-ynyl]-4-pyridyl]-3,8-diazabicyclo[3.2.1]octan-3-yl]pyridazin-3-yl]phenol]	< 10	E (E indicates −30%-−70%)	< 10	30 to 70
Nc1nnc(-c2ccccc2O)cc1N1CC2CCC(C1)N2c1ccnc(C#CCN2CCOC3(CC3)C2)c1 [Compound 124, 2-[6-amino-5-[8-[2-[3-(4-oxa-7-azaspiro[2.5]octan-7-yl)prop-1-ynyl]-4-pyridyl]-3,8-diazabicyclo[3.2.1]octan-3-yl]pyridazin-3-yl]phenol]	< 10	E (E indicates −30%-−70%)	> 100	–
Nc1nnc(-c2ccccc2O)cc1N1CC2CCC(C1)N2c1ccnc(C#CCN2CC3CCCC2C3)c1 (stereo not drawn) [Compound 125, 2-[6-amino-5-[8-[2-[3-(6-azabicyclo[3.2.1]octan-6-yl)prop-1-ynyl]-4-pyridyl]-3,8-diazabicyclo[3.2.1]octan-3-yl]pyridazin-3-yl]phenol]	< 10	E (E indicates −30%-−70%)	< 10	30 to 70
Nc1nnc(-c2ccccc2O)cc1N1CC2CCC(C1)N2c1ccnc(C#CCN2CC3CC(C2)C3O)c1 (stereo not drawn) [Compound 126, 3-[3-[4-[3-[3-amino-6-(2-hydroxyphenyl)pyridazin-4-yl]-3,8-diazabicyclo[3.2.1]octan-8-yl]-2-pyridyl]prop-2-ynyl]-3-azabicyclo[3.1.1]heptan-6-ol]	< 10	E (E indicates −30%-−70%)	< 10	0 to 30
